SMILES strings stand for the structures. pIC50: −log10 of the molar value. The source made the active and inactive calls. How the calls were made is not given here.

For this assay, the system named is HEK-293T NF-kB luciferase reporter counterscreen, luminescence. The assay is described as follows: inhibitors of HEK-293T NF-kB luciferase – HEK-293T cells, luminescence, counter-screen for T-cell antigen receptor NF-kB inhibitors, dose response (AID 489041). On the technique in general: Counterscreens check selectivity or assay interference.
For the compound `CCOc1ccccc1NC(=O)Cn1nnc(C(=O)NCc2cccs2)c1N`, the pIC50 was 5.54.

`C[C@]12CC[C@@H]3c4cc(O)c(O)cc4CC[C@H]3[C@@H]1CC[C@@H]2O`: the IC50 is 45 µM (inactive).

With `O=C(N/N=C\c1c(O)ccc2ccccc12)c1cncc(Br)c1`, the negative logarithm of the IC50 (pIC50) is 4.95.

In the case of `Clc1ccc2c(c1)C(C1=NCCN1)c1ccccc1CS2` (centres undefined), the IC50 was > 80 µM (inactive).

In the case of `O=C(Nc1ccc(Cc2ccncc2)cc1)c1ccc(S(=O)(=O)N2CCCC2)cc1`, the negative logarithm of the IC50 (pIC50) was 5.56.

For `Cc1cc2c(cc1C)C(c1ccccc1OC(C)C)CC(=O)N2` (centres undefined), the pIC50 was 4.88.

Regarding `CC[n+]1cc(C)ccc1/C=C/c1ccc(N(C)C)cc1`, the pIC50 was 5.40.

As to `CCCN1C=CC(=C2C(=O)c3ccccc3C2=O)C=C1`, the pIC50 is 5.96.

Consider `COc1cccc(/C=N/Nc2ncnc3c2ncn3Cc2ccccc2)c1O`, for which the pIC50 is 6.60.

For the compound `Cc1ccc(NC(=O)c2cc3ccccc3oc2=O)cc1S(=O)(=O)N(C)C`, the pIC50 is greater than 6.80.

For `CCOC(=O)c1c(C)[nH]c(C(=O)N/N=C/c2ccc(Br)cc2)c1C`, the negative-log IC50 (pIC50) was greater than 6.80.

`CC(C)Oc1ccccc1C1CC(=O)Nc2cc3c(cc21)OCCO3` (centres undefined): the negative logarithm of the IC50 (pIC50) is 5.57.

Consider `COc1cc(NC(=O)N2CCNC2=O)cc(C(=O)Nc2cccc(C(F)(F)F)c2)c1`, for which the pIC50 is 5.66.

On to `Cc1ccc(C(=O)c2cc([N+](=O)[O-])ccc2N2CCCCC2)cc1`, for which the pIC50 is 5.38.

As for `Cc1ccccc1NS(=O)(=O)c1ccc(N2CCCC2=O)cc1`, the IC50 was 42.2 µM (inactive).

For `Cc1nnc(N/N=C/c2ccccn2)[nH]c1=O`, the IC50 was > 80 µM (inactive).

Consider `CCc1ccc2nc(SCC(=O)Nc3ccccc3N3CCOCC3)c(C#N)cc2c1`, for which the IC50 was > 80 µM (inactive).

For the compound `CCSc1nc2ccccc2n1C(=O)/C=C\c1ccc(OC)c(OC)c1`, the negative logarithm of the IC50 (pIC50) was 4.74.

For the compound `Cc1cc(C(C)(C)C)cc(C)c1C[n+]1ccc2ccccc2c1`, the negative-log IC50 (pIC50) was 5.36.

Regarding `COc1ccc(S(=O)(=O)/N=C2\C=C(Nc3ccc(O)cc3)C(=O)c3ccccc32)cc1`, the pIC50 was 5.99.

As for `CCCC(=O)Nc1nc2ccc(S(=O)(=O)N3CCCCC3)cc2s1`, the negative-log IC50 (pIC50) was 5.45.

As to `Cc1ccc(-n2ncc3c(N4CCN(c5ccccc5)CC4)ncnc32)c(C)c1`, the negative logarithm of the IC50 (pIC50) was 5.49.

For `Cc1cccc(NS(=O)(=O)c2ccc(-c3cnc(C4CC4)o3)cc2)c1`, the negative-log IC50 (pIC50) was 5.49.

As for `CC(C)(C)C(=O)Nc1ccc(NC(=O)c2ccco2)nc1`, the pIC50 was 6.57.

For the compound `Cc1ccc(C(=O)c2cc([N+](=O)[O-])ccc2N2CCCCC2)c(C)c1`, the negative logarithm of the IC50 (pIC50) is 5.14.

As to `COC(=O)c1ccc(Oc2cc(C)nc(SC)n2)cc1`, the IC50 was 28.8 µM (inactive).

Turning to `CC(C)c1oc(=O)cc2c1[C@@H](O)[C@H]1OC(=O)[C@@]3(C)C[C@@H](O)[C@@H](O)[C@@]2(C)C13` (some centres undefined), the negative logarithm of the IC50 (pIC50) was 6.12.

For the compound `CCCOc1ccc(/C=N/Nc2cc(N3CCOCC3)ncn2)c(O)c1`, the pIC50 is 6.42.

`C#Cc1ccc([C@@H]2C=C(C(=O)N3CCN(Cc4ccccc4)CC3)O[C@H](OCCCCO)C2)cc1`: the negative-log IC50 (pIC50) was 5.63.

In the case of `N/C(=N\OCc1ccc([N+](=O)[O-])cc1)c1ccccn1`, the pIC50 was 5.75.

As to `Clc1ccc(CSc2nncn2-c2ccc3c(c2)OCCO3)cc1`, the negative logarithm of the IC50 (pIC50) was 4.86.

As to `Cc1ccc(C(=O)c2cc([N+](=O)[O-])ccc2N2CCCCC2)cc1C`, the pIC50 is 5.21.

Consider `c1ccc(-c2noc(-c3ccc4c(c3)OCO4)n2)nc1`, for which the negative logarithm of the IC50 (pIC50) was 5.85.

`C=C(C)[C@@]12OC3(c4ccccc4)O[C@@H]1C1[C@@H]4O[C@]4(CO)[C@@H](O)[C@]4(O)C(=O)C(C)=C[C@H]4[C@@]1(O3)[C@H](C)[C@H]2OC(=O)/C=C/C=C/c1ccccc1` (some centres undefined): the pIC50 was greater than 6.80.

Consider `Cc1[nH]n(-c2ccccc2)c(=O)c1/C=N/Nc1nncc(-c2ccccc2)n1`, for which the pIC50 is 6.70.

As for `COC(=O)C1CN(C#N)N(c2ccc(Cl)cc2)C12c1ccccc1-c1ccccc12` (centres undefined), the negative-log IC50 (pIC50) is 4.80.

For `COc1ccc(NS(=O)(=O)c2cc(-c3cnc(C4CC4)o3)ccc2C)cc1`, the pIC50 is 5.03.

Consider `Cc1cc(C)cc(C(=O)N2CC(=O)Nc3ccccc32)c1`, for which the pIC50 is 5.33.

Turning to `C[C@]12CC[C@H](O)C[C@H]1CC[C@@H]1[C@@H]2C[C@@H](O)[C@]2(C)[C@@H](C3=CC(=O)OC3)CC[C@]12O`, the negative-log IC50 (pIC50) is 6.24.

Usually pIC50 stands for the negative decadic logarithm of the IC50, by convention in mol/L. A word on the IC50: it is the concentration that inhibits the measured activity by half.
